Laboratory results published in the SangsterLogP compilation.

| Structure (SMILES) | logP |
| --- | --- |
| COc1nc(C)c(-c2ccncc2)cc1C#N | 2.41 |
| Cc1nc(OCCO)c(C#N)cc1-c1ccncc1 | 1.83 |
| Cc1nc(OCCOCCO)c(C#N)cc1-c1ccncc1 | 1.81 |
| N#Cc1cc(-c2ccncc2)cnc1OCCOCCO | 1.5 |
| N#Cc1cc(-c2ccncc2)cnc1Oc1ccccc1 | 3.09 |
| N#Cc1cc(-c2ccncc2)cnc1OCC(O)CO (centres undefined) | 0.76 |
| Cc1nc(OCCO)c(C#N)cc1-c1ccccc1 | 3.23 |
| COCCOc1nc(C)c(-c2ccncc2)cc1C#N | 2.4 |
| COCCOc1nc(C)c(-c2ccccc2)cc1C#N | 3.74 |

Second part, the molecule after the results:

| logP | Structure (SMILES) |
| --- | --- |
| 1.65 | CC(O)COc1ncc(-c2ccncc2)cc1C#N (centres undefined) |
| 2.02 | COc1ncc(-c2ccncc2)cc1C#N |
| 1.96 | COCCOc1ncc(-c2ccncc2)cc1C#N |
| 2.59 | CCOc1ncc(-c2ccncc2)cc1C#N |
| 1.63 | N#Cc1cc(-c2ccncc2)cnc1OCCCO |
